According to ChEMBL document CHEMBL3751668, “A Pyrazolo[3,4-d]pyrimidin-4-amine Derivative Containing an Isoxazole Moiety Is a Selective and Potent Inhibitor of RET Gatekeeper Mutants” (J Med Chem, 2016):

Key:
[1] = Cytotoxicity against mouse BAF3 cells after 48 hrs by MTT assay; assay type: cell-based
[2] = Cytotoxicity against human Nthy-ori 3-1 cells after 10 days by MTT assay; assay type: cell-based
[3] = biological target: T1, Proto-oncogene tyrosine-protein kinase receptor Ret (Homo sapiens, UniProt P07949); assay: Inhibition of human wild type RET by radiometric assay in presence of [gamma-33P]-ATP
T1 sequence (P07949 whole entry): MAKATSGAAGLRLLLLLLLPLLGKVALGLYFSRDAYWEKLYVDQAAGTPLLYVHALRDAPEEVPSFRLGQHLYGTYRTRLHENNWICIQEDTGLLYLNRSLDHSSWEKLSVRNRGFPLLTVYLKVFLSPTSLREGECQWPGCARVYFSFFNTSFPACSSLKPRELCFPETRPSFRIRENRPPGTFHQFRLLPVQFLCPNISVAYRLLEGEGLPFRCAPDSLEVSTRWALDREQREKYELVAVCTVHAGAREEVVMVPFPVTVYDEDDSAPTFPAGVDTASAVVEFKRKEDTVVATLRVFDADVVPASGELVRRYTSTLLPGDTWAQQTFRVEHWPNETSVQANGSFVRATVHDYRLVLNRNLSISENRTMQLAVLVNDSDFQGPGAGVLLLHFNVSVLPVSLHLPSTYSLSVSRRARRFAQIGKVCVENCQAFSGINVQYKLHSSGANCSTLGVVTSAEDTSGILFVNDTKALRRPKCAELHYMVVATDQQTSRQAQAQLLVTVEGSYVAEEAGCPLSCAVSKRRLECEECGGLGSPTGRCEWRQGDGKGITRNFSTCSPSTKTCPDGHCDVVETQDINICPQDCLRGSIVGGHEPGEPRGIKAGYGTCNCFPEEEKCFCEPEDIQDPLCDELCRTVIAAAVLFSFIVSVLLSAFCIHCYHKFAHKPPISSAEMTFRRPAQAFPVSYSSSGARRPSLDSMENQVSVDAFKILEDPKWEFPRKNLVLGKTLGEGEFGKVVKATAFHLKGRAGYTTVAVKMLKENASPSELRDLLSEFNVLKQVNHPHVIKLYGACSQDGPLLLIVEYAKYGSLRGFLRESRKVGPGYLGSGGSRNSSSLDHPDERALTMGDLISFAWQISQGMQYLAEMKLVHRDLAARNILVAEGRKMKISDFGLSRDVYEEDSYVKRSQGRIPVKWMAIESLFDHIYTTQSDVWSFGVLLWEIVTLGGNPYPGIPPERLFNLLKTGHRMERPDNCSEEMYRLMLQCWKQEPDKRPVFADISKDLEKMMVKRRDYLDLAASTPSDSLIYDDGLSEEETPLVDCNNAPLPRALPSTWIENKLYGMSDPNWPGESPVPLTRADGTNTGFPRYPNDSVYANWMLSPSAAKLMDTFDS

[4] = biological target: Proto-oncogene tyrosine-protein kinase receptor Ret (Homo sapiens, UniProt P07949, V804M); assay: Inhibition of human Ret V804M mutant by radiometric assay in presence of [gamma-33P]-ATP
Sequence of Proto-oncogene tyrosine-protein kinase receptor Ret (Homo sapiens, UniProt P07949, V804M) (P07949 29-1114 V804M limits assumed): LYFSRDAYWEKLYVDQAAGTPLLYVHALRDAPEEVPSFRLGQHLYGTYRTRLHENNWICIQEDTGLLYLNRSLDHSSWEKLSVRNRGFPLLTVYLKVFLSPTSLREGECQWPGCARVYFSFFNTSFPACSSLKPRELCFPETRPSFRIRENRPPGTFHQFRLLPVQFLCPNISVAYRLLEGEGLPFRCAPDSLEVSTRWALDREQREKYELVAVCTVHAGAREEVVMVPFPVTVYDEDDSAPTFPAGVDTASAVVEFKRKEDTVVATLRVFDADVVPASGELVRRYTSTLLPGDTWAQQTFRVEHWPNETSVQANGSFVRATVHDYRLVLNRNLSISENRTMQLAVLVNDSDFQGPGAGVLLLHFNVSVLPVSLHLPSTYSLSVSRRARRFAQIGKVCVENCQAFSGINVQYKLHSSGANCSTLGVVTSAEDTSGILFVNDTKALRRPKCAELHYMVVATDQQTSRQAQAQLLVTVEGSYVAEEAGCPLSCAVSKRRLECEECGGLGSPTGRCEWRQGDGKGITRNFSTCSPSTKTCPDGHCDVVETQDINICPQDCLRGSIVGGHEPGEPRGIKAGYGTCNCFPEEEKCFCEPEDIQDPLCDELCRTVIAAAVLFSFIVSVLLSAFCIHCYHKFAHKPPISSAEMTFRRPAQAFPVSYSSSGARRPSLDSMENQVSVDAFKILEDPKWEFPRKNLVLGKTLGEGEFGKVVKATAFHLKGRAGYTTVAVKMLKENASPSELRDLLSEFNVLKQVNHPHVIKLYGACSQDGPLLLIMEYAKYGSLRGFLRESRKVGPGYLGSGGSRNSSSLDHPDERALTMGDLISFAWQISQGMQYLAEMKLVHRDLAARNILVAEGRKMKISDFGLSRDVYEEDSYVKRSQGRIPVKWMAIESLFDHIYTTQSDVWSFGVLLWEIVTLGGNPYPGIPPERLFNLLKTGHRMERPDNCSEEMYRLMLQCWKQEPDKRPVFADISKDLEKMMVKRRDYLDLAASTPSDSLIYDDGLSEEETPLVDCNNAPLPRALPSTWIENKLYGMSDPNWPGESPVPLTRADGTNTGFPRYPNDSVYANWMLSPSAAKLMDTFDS

[5] = system: Proto-oncogene tyrosine-protein kinase receptor Ret (Homo sapiens), P07949 [V804M]; details: BaF3
Sequence of Proto-oncogene tyrosine-protein kinase receptor Ret (Homo sapiens), P07949 [V804M] (P07949 whole entry V804M): as the sequence (P07949 whole entry) above, with V804M counted along it

[6] = biological target: T1, Proto-oncogene tyrosine-protein kinase receptor Ret; details: BaF3
Description: Inhibition of wild type TEL-fused RET (unknown origin) expressed in mouse BA/F3 cells assessed as cell growth inhibition after 48 hrs by MTT assay

[7] = system: Proto-oncogene tyrosine-protein kinase receptor Ret (Homo sapiens), P07949 [C634W]; details: TT
Sequence of Proto-oncogene tyrosine-protein kinase receptor Ret (Homo sapiens), P07949 [C634W] (P07949 whole entry C634W): as the sequence (P07949 whole entry) above, with C634W counted along it
Description: Inhibition of RET C634W mutant in human TT cells assessed as cell growth inhibition after 10 days by MTT assay

[8] = Cell cycle arrest in human Nthy-ori 3-1 cells assessed as accumulation at G2 phase at 10 uM after 24 hrs by […] staining-based flow cytometric analysis; details: nthy-ori 3-1, 24 h
[9] = Induction of apoptosis in human Nthy-ori 3-1 cells at 10 uM after 48 hrs by annexinV/PI staining-based flow cytometric analysis; assay type: cell-based; details: nthy-ori 3-1, 48 h
TT [10] = assay: Cytotoxicity against human TT cells assessed as suppression of anchorage-independent growth at 1 uM for 30 days by soft agar assay; assay type: functional
[11] = system: Proto-oncogene tyrosine-protein kinase receptor Ret (Homo sapiens), P07949 [V804L]; details: BaF3
[12] = system: Proto-oncogene tyrosine-protein kinase receptor Ret (Homo sapiens), P07949 [S891A]; details: BaF3
Cytochrome P450 3A4 = Cytochrome P450 3A4 (Homo sapiens, UniProt P08684); assay: Inhibition of CYP3A4 (unknown origin); assay type: ADME
Cytochrome P450 2D6 = Cytochrome P450 2D6 (Homo sapiens, UniProt P10635); assay: Inhibition of CYP2D6 (unknown origin); assay type: ADME
Sequence of Cytochrome P450 2D6 (P10635 whole entry): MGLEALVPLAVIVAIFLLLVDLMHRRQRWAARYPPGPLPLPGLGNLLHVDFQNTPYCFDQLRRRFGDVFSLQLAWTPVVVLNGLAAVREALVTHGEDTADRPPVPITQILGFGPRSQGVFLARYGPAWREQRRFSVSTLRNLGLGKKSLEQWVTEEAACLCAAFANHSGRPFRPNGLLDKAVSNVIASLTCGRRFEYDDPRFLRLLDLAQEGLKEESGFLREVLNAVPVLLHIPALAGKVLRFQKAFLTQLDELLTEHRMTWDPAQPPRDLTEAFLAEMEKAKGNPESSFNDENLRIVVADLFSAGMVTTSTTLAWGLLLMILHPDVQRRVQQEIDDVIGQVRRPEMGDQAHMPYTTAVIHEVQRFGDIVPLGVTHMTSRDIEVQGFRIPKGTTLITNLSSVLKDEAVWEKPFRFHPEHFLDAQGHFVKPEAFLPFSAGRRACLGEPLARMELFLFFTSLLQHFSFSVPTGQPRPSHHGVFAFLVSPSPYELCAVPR

Cytochrome P450 2C9 = Cytochrome P450 2C9 (Homo sapiens, UniProt P11712); assay: Inhibition of CYP2C9 (unknown origin); assay type: ADME
Cytochrome P450 2C19 = Cytochrome P450 2C19 (Homo sapiens, UniProt P33261); assay: Inhibition of CYP2C19 (unknown origin); assay type: ADME
[13] = Half life in human liver microsomes; assay type: ADME
Cytochrome P450 1A2 = Cytochrome P450 1A2 (Homo sapiens, UniProt P05177); assay: Inhibition of CYP1A2 (unknown origin); assay type: ADME
[14] = biological target: Ribosomal protein S6 kinase beta-1 (Homo sapiens, UniProt P23443); assay: Inhibition of recombinant human p70S6K by radiometric assay in presence of [gamma-33P]-ATP
[15] = biological target: Vascular endothelial growth factor receptor 3 (Homo sapiens, UniProt P35916); assay: Inhibition of recombinant human FLT4 by radiometric assay in presence of [gamma-33P]-ATP
[16] = biological target: Ribosomal protein S6 kinase alpha-1 (Homo sapiens, UniProt Q15418); assay: Inhibition of recombinant human RSK1 by radiometric assay in presence of [gamma-33P]-ATP
[17] = biological target: Voltage-gated inwardly rectifying potassium channel KCNH2 (Homo sapiens, UniProt Q12809); assay: Inhibition of human ERG assessed as prolongation of QT-interval at 100 uM by patch-clamp assay
[18] = biological target: Proto-oncogene tyrosine-protein kinase receptor Ret (Homo sapiens, UniProt P07949, G691S); assay: Inhibition of human Ret G691S mutant by radiometric assay in presence of [gamma-33P]-ATP
[19] = biological target: Proto-oncogene tyrosine-protein kinase receptor Ret (Homo sapiens, UniProt P07949, Y791F); assay: Inhibition of human Ret Y791F mutant by radiometric assay in presence of [gamma-33P]-ATP
[20] = biological target: Proto-oncogene tyrosine-protein kinase receptor Ret (Homo sapiens, UniProt P07949, V804L); assay: Inhibition of human Ret V804L mutant by radiometric assay in presence of [gamma-33P]-ATP
[21] = biological target: Proto-oncogene tyrosine-protein kinase receptor Ret (Homo sapiens, UniProt P07949, S891A); assay: Inhibition of human Ret S891A mutant by radiometric assay in presence of [gamma-33P]-ATP
[22] = biological target: Proto-oncogene tyrosine-protein kinase receptor Ret (Homo sapiens, UniProt P07949, M918T); assay: Inhibition of human Ret M918T mutant by radiometric assay in presence of [gamma-33P]-ATP
[23] = Inhibition of recombinant human PKA by radiometric assay in presence of [gamma-33P]-ATP
[24] = biological target: Dual specificity mitogen-activated protein kinase kinase 2 (Homo sapiens, UniProt P36507); assay: Inhibition of recombinant human MEK2 by radiometric assay in presence of [gamma-33P]-ATP
[25] = biological target: Tyrosine-protein kinase Fgr (Homo sapiens, UniProt P09769); assay: Inhibition of recombinant human FGR by radiometric assay in presence of [gamma-33P]-ATP
[26] = biological target: T2, Vascular endothelial growth factor receptor 2 (Homo sapiens, UniProt P35968); assay: Inhibition of recombinant human VGFR2 by radiometric assay in presence of [gamma-33P]-ATP
[27] = biological target: Dual specificity mitogen-activated protein kinase kinase 1 (Homo sapiens, UniProt Q02750); assay: Inhibition of recombinant human MEK1 by radiometric assay in presence of [gamma-33P]-ATP
[28] = biological target: Tyrosine-protein kinase HCK (Homo sapiens, UniProt P08631); assay: Inhibition of recombinant human HCK by radiometric assay in presence of [gamma-33P]-ATP
TT [29] = assay: Cytotoxicity against human TT cells assessed as suppression of anchorage-independent growth at 0.3 to 1 uM for 30 days by soft agar assay; assay type: functional
[30] = Ratio of GI50 for human Nthy-ori-3-1 cells to GI50 for RET C634W mutant-mediated human TT cell growth inhibition
[31] = biological target: T2, Vascular endothelial growth factor receptor 2; assay: Inhibition of TEL-fused VEGFR2 (unknown origin) expressed in mouse BA/F3 cells assessed as cell growth inhibition; assay type: cell-based; details: baf3

CCCCCCCn1nc(-c2cc(C3CC3)on2)c2c(N)ncnc21
GI50 at 48 h [1]: > 10000 nM
GI50 at 240 h [2]: 31600 nM
IC50 [3]: 96 nM
IC50 [4]: 927 nM
GI50 [5]: > 10000 nM
GI50 [6]: > 10000 nM
GI50 [7]: > 10000 nM

CC(C)n1nc(-c2cc(-c3ccccn3)on2)c2c(N)ncnc21
GI50 at 48 h [1]: 5300 nM
GI50 at 240 h [2]: 1630 nM
IC50 [3]: 910 nM
IC50 [4]: 5880 nM
GI50 [5]: 700 nM
GI50 [6]: 1110 nM
GI50 [7]: 9260 nM

CC(C)n1nc(-c2ccon2)c2c(N)ncnc21
GI50 at 48 h [1]: > 10000 nM
GI50 at 240 h [2]: 18600 nM
IC50 [3]: 213 nM
IC50 [4]: 903 nM
GI50 [5]: 8940 nM
GI50 [6]: 3210 nM
GI50 [7]: 7920 nM

CCc1cc(-c2nn(C(C)C)c3ncnc(N)c23)no1
GI50 at 48 h [1]: > 10000 nM
GI50 at 240 h [2]: 28600 nM
IC50 [3]: 41 nM
IC50 [4]: 531 nM
GI50 [5]: 5770 nM
GI50 [6]: 1560 nM
GI50 [7]: 2610 nM

COc1cc2nccc(Oc3ccc(NC(=O)C4(C(=O)Nc5ccc(F)cc5)CC4)cc3)c2cc1OC [CABOZANTINIB]
GI50 at 240 h [2]: 4930 nM
Activity [8]: Toxic
Activity [9]: Non-toxic
Activity (TT [10]): <3 CFU
GI50 [5]: 890 nM
GI50 [6]: 50 nM
GI50 [7]: 120 nM
GI50 [11]: 910 nM
GI50 [12]: 10 nM

CC(C)n1nc(-c2cc(C3CC3)on2)c2c(N)ncnc21
IC50 (Cytochrome P450 3A4): > 30000 nM
IC50 (Cytochrome P450 2D6): > 30000 nM
IC50 (Cytochrome P450 2C9): > 30000 nM
IC50 (Cytochrome P450 2C19): > 30000 nM
half-life [13]: 13 min
GI50 at 48 h [1]: > 10000 nM
IC50 (Cytochrome P450 1A2): 2000 nM
GI50 at 240 h [2]: 13700 nM
IC50 [14]: 23 nM
IC50 [15]: 72 nM
IC50 [16]: 311 nM
IC50 [3]: 1.4 nM
IC50 [4]: 4 nM
inhibition (INH) [17]: Not Active
IC50 [18]: 10 nM
IC50 [19]: 3 nM
IC50 [20]: 21 nM
IC50 [21]: 2 nM
IC50 [22]: 6 nM
IC50 [23]: 39 nM
IC50 [24]: 82 nM
IC50 [25]: 65 nM
IC50 [26]: 96 nM
IC50 [27]: 142 nM
IC50 [28]: 137 nM
Activity [8]: Non-toxic
Activity [9]: Non-toxic
Activity (TT [29]): 150 CFU
RatioGI50 [30]: 50
GI50 [31]: 3000 nM
GI50 [5]: 320 nM
GI50 [6]: 80 nM
GI50 [7]: 240 nM
GI50 [11]: 500 nM
GI50 [12]: 90 nM

CC(C)n1nc(-c2cc(C3CCCCC3)on2)c2c(N)ncnc21
GI50 at 48 h [1]: > 10000 nM
GI50 at 240 h [2]: 4110 nM
IC50 [3]: 910 nM
GI50 [5]: 4730 nM
GI50 [6]: 9500 nM
GI50 [7]: > 10000 nM

CC(C)(O)Cn1nc(-c2cc(C3CC3)on2)c2c(N)ncnc21
GI50 at 48 h [1]: > 10000 nM
GI50 at 240 h [2]: 2820 nM
IC50 [3]: 68 nM
IC50 [4]: 217 nM
GI50 [5]: 6750 nM
GI50 [6]: 1770 nM
GI50 [7]: 4250 nM

CC(C)n1nc(C2=NOC(c3ccccc3)C2)c2c(N)ncnc21 (stereo unspecified)
GI50 at 48 h [1]: > 10000 nM
GI50 at 240 h [2]: 18900 nM
IC50 [3]: 583 nM
IC50 [4]: 5680 nM
GI50 [5]: > 10000 nM
GI50 [6]: 6240 nM
GI50 [7]: > 10000 nM

CC(C)n1nc(-c2cc(Cc3ccccc3)on2)c2c(N)ncnc21
GI50 at 48 h [1]: > 10000 nM
GI50 at 240 h [2]: 21500 nM
IC50 [3]: 241 nM
IC50 [4]: 1990 nM
GI50 [5]: > 10000 nM
GI50 [6]: > 10000 nM
GI50 [7]: > 10000 nM

Nc1ncnc2[nH]nc(-c3cc(C4CC4)on3)c12
GI50 at 48 h [1]: > 10000 nM
GI50 at 240 h [2]: 510 nM
IC50 [3]: 52 nM
IC50 [4]: 354 nM
GI50 [5]: > 10000 nM
GI50 [6]: 5340 nM
GI50 [7]: > 10000 nM
